How the values were obtained:
[1] = tested on: Mus musculus; assay: Maximum increase in life span was measured in B6d2F1 mice after implanting murine leukemia L1210 cells(ic, 10e4 cells) at an intracerebral optimal dose of 160 mg/ (kg day)(qd 1-9); assay type: functional
[2] = Partition coefficient (logP); assay type: physicochemical; conditions: octanol/water
[3] = tested on: Mus musculus; assay: Percent increase in life span was measured in B6C3F1 mice after implanting murine Ependymoblastoma cells(ic) at an intraperitoneal optimal dose of 128 mg/ (kg injection)
[4] = tested on: Mus musculus; assay: Maximum increase in life span was measured in B6d2F1 mice after implanting murine leukemia L1210 cells(ip, 10e5 cells) at an intraperitoneal optimal dose of 39 mg/ (kg day)(qd 1-9); assay type: functional
[5] = tested on: Mus musculus; assay: Maximum increase in life span was measured in B6d2F1 mice after implanting murine leukemia L1210 cells(ip, 10e5 cells) at an intraperitoneal optimal dose of 108 mg/ (kg day)(qd 1-9); assay type: functional
[6] = tested on: Mus musculus; assay: Percent increase in life span was measured in B6C3F1 mice after implanting murine Ependymoblastoma cells(ic) at an intraperitoneal optimal dose of 64 mg/ (kg injection)
[7] = tested on: Mus musculus; assay: Maximum increase in life span was measured in B6d2F1 mice after implanting murine leukemia L1210 cells(ic, 10e4 cells) at an intracerebral optimal dose of 40 mg/ (kg day)(qd 1-9); assay type: functional
[8] = tested on: Mus musculus; assay: Percent increase in life span was measured in B6C3F1 mice after implanting murine Ependymoblastoma cells(ic) at an intraperitoneal optimal dose of 32 mg/ (kg injection)
[9] = tested on: Mus musculus; assay: Maximum increase in life span was measured in B6d2F1 mice after implanting murine leukemia L1210 cells(ic, 10e4 cells) at an intracerebral optimal dose of 80 mg/ (kg day)(qd 1-9); assay type: functional
[10] = tested on: Mus musculus; assay: Maximum increase in life span was measured in B6d2F1 mice after implanting murine leukemia L1210 cells(ic, 10e4 cells) at an intracerebral optimal dose of 40 mg/(kg day)(qd 1-9); assay type: functional
[11] = tested on: Mus musculus; assay: Maximum increase in life span was measured in B6d2F1 mice after implanting murine leukemia L1210 cells(ip, 10e5 cells) at an intraperitoneal optimal dose of 65 mg/(kg day)(qd 1-9); assay type: functional
[12] = tested on: Mus musculus; assay: Maximum increase in life span was measured in B6d2F1 mice after implanting murine leukemia L1210 cells(ip, 10e5 cells) at an intraperitoneal optimal dose of 65 mg/ (kg day)(qd 1-9); assay type: functional
[13] = tested on: Mus musculus; assay: Percent increase in life span was measured in B6C3F1 mice after implanting murine Ependymoblastoma cells(ic) at an intraperitoneal optimal dose of 8 mg/ (kg injection)
[14] = tested on: Mus musculus; assay: Maximum increase in life span was measured in B6d2F1 mice after implanting murine leukemia L1210 cells(ic, 10e4 cells) at an intracerebral optimal dose of 20 mg/ (kg day)(qd 1-9); assay type: functional
[15] = tested on: Mus musculus; assay: Percent increase in life span was measured in B6d2F1 mice after implanting B16 melanoma cells(ic) at an intracerebral (ic) optimal dose of 40-80 mg/ (kg day); assay type: functional
[16] = tested on: Mus musculus; assay: Maximum increase in life span was measured in B6d2F1 mice after implanting murine leukemia L1210 cells(ip, 10e5 cells) at an intraperitoneal optimal dose of 300 mg/ (kg day)(qd 1-9); assay type: functional
[17] = tested on: Mus musculus; assay: Percent increase in life span was measured in B6d2F1 mice after implanting B16 melanoma cells(ic) at an intracerebral (ic) optimal dose of 10-40 mg/ (kg day); assay type: functional

SMILES: COC(=O)c1cccc(/N=N/N(C)C)c1
- ILS [1]: 10%
- logP ([2]; read-out: logP): 2.77
- ILS [3]: 62%
- ILS [4]: 30%

SMILES: CN(C)/N=N/c1c(Br)cccc1Br
- ILS [1]: 14%
- ILS [5]: 44%
- logP ([2]; read-out: logP): 4.31

SMILES: COC(=O)c1ccc(/N=N/N(C)C)cc1
- ILS [1]: 7%
- logP ([2]; read-out: logP): 2.77
- ILS [6]: 64%
- ILS [4]: 40%

SMILES: CN(C)/N=N/c1cccc(C(N)=O)c1
- ILS [7]: 22%
- logP ([2]; read-out: logP): 1.21
- ILS [4]: 50%

SMILES: CN(C)/N=N/c1ccc(C(=O)O)cc1
- ILS [8]: 18%
- ILS [9]: 25%
- logP [2]: -1.77
- ILS [4]: 41%

SMILES: COC(=O)c1ccccc1/N=N/N(C)C
- ILS [10]: 14%
- logP ([2]; read-out: logP): 2.72
- ILS [11]: 11%

SMILES: CN(C)/N=N/c1ccccc1Cl
- ILS [9]: 5%
- ILS [3]: 38%
- ILS [12]: 21%

SMILES: CN(C)/N=N/c1ccccc1C(=O)O
- logP ([2]; read-out: logP): -2.66
- ILS [13]: 2%
- ILS [14]: 6%
- ILS [12]: 12%

SMILES: CN(C)/N=N/c1ccc(C(N)=O)cc1
- ILS [8]: 62%
- ILS [1]: 45%
- logP [2]: 1.2
- ILS [4]: 40%
- ILS [15]: 30%

SMILES: CN(C)/N=N/c1c(Cl)cccc1Cl
- ILS [1]: 12%
- ILS [5]: 39%
- logP ([2]; read-out: logP): 4.01

SMILES: CN(C)/N=N/c1cccc(Cl)c1
- ILS [7]: 7%
- ILS [5]: 11%
- logP ([2]; read-out: logP): 3.3

SMILES: CC(=O)c1ccccc1/N=N/N(C)C
- ILS [7]: 9%
- ILS [5]: 0%
- logP ([2]; read-out: logP): 2.19

SMILES: CC(=O)c1cccc(/N=N/N(C)C)c1
- ILS [7]: 6%
- logP ([2]; read-out: logP): 2.19
- ILS [12]: 55%

SMILES: CN(C)/N=N/c1ccccc1C(N)=O
- ILS [7]: 10%
- ILS [12]: 10%

SMILES: CN(C)/N=N/c1ccc(I)cc1
- logP ([2]; read-out: logP): 3.71
- ILS [16]: 5%

SMILES: CN(C)/N=N/c1ccc(Br)cc1
- logP ([2]; read-out: logP): 3.45
- ILS [16]: 0%

SMILES: CC(=O)c1ccc(/N=N/N(C)C)cc1
- ILS [5]: 16%
- logP ([2]; read-out: logP): 2.19
- ILS [14]: 5%

SMILES: CN(C)/N=N/c1ccc(F)cc1
- logP ([2]; read-out: logP): 2.73
- ILS [16]: 16%

SMILES: CN(C)/N=N/c1ccc(Cl)cc1
- ILS [5]: 26%
- ILS [9]: 2%
- logP ([2]; read-out: logP): 3.3

SMILES: CN(C)/N=N/c1[nH]cnc1C(N)=O [DACARBAZINE]
- ILS [1]: 18%
- ILS [5]: 50%
- logP [2]: -0.24
- ILS [6]: 60%
- ILS [17]: 8%
